± gives the expanded uncertainty stated by the source.
Experiment: xn = mol fraction of the nth substance listed
Conditions: 102 kPa, Liquid; for viscosity: Concentric cylinders viscometry; for speed of sound: Frequency=3 MHz, Single path-length method; for mass density: Vibrating tube method

CCCCCCCCCCCCC1CCCCC1 [dodecylcyclohexane] + CCCCCCCCCCCCCCCC
Conditions	mass density [kg/m3]	speed of sound [m/s]	viscosity [mPa·s]
293.15 K, x1 = 0.2002	783.66 ± 0.81	1370.4 ± 0.7	4.02 ± 0.02
293.15 K, x1 = 0.4001	793.67 ± 0.81	1384 ± 0.7	4.72 ± 0.02
293.15 K, x1 = 0.5001	798.59 ± 0.81	1390.6 ± 0.7	5.11 ± 0.02
293.15 K, x1 = 0.6003	803.47 ± 0.81	1396.7 ± 0.7	5.49 ± 0.05
293.15 K, x1 = 0.8001	812.98 ± 0.81	1410.4 ± 0.8	6.49 ± 0.03
293.15 K, x1 = 1	822.31 ± 0.81	1423.3 ± 0.9	7.76 ± 0.04
303.15 K, x1 = 0.2002	776.77 ± 0.81	1333.2 ± 0.7	3.17 ± 0.02
303.15 K, x1 = 0.4001	786.84 ± 0.81	1347 ± 0.7	3.66 ± 0.02
303.15 K, x1 = 0.5001	791.79 ± 0.81	1353.7 ± 0.7	3.95 ± 0.02
303.15 K, x1 = 0.6003	796.69 ± 0.81	1359.9 ± 0.7	4.23 ± 0.02
303.15 K, x1 = 0.8001	806.26 ± 0.81	1373.4 ± 0.8	4.93 ± 0.02
303.15 K, x1 = 1	815.65 ± 0.81	1386.3 ± 0.9	5.81 ± 0.03
313.15 K, x1 = 0.2002	769.91 ± 0.81	1296.9 ± 0.7	2.56 ± 0.02
313.15 K, x1 = 0.4001	780.03 ± 0.81	1310.8 ± 0.7	2.92 ± 0.02
313.15 K, x1 = 0.5001	785.01 ± 0.81	1317.6 ± 0.7	3.13 ± 0.02
313.15 K, x1 = 0.6003	789.93 ± 0.81	1323.8 ± 0.7	3.34 ± 0.02
313.15 K, x1 = 0.8001	799.57 ± 0.81	1337.3 ± 0.8	3.85 ± 0.02
313.15 K, x1 = 1	809.01 ± 0.81	1350.4 ± 0.9	4.48 ± 0.02
323.15 K, x1 = 0.2002	763.05 ± 0.81	1261.2 ± 0.7	2.1 ± 0.02
323.15 K, x1 = 0.4001	773.23 ± 0.81	1275.3 ± 0.7	2.38 ± 0.02
323.15 K, x1 = 0.5001	778.23 ± 0.81	1282.1 ± 0.7	2.54 ± 0.02
323.15 K, x1 = 0.6003	783.19 ± 0.81	1288.5 ± 0.7	2.7 ± 0.02
323.15 K, x1 = 0.8001	792.89 ± 0.81	1302 ± 0.8	3.09 ± 0.02
323.15 K, x1 = 1	802.37 ± 0.81	1315.2 ± 0.9	3.55 ± 0.02
333.15 K, x1 = 0.2002	756.19 ± 0.81	1226.5 ± 0.7	1.76 ± 0.01
333.15 K, x1 = 0.4001	766.43 ± 0.81	1240.6 ± 0.7	1.97 ± 0.02
333.15 K, x1 = 0.5001	771.46 ± 0.81	1247.5 ± 0.7	2.1 ± 0.02
333.15 K, x1 = 0.6003	776.44 ± 0.81	1254.3 ± 0.7	2.23 ± 0.02
333.15 K, x1 = 0.8001	786.2 ± 0.81	1267.8 ± 0.8	2.53 ± 0.02
333.15 K, x1 = 1	795.74 ± 0.81	1281.1 ± 0.9	2.88 ± 0.02
343.15 K, x1 = 0.2002	749.3 ± 0.8	–	1.49 ± 0.01
343.15 K, x1 = 0.4001	759.7 ± 0.8	–	1.67 ± 0.01
343.15 K, x1 = 0.5001	764.7 ± 0.8	–	1.77 ± 0.01
343.15 K, x1 = 0.6003	769.7 ± 0.8	–	1.88 ± 0.02
343.15 K, x1 = 0.8001	779.6 ± 0.8	–	2.11 ± 0.02
343.15 K, x1 = 1	789.1 ± 0.8	–	2.39 ± 0.02
353.15 K, x1 = 0.2002	742.4 ± 0.8	–	1.28 ± 0.01
353.15 K, x1 = 0.4001	752.9 ± 0.8	–	1.43 ± 0.01
353.15 K, x1 = 0.5001	757.9 ± 0.8	–	1.51 ± 0.01
353.15 K, x1 = 0.6003	763 ± 0.8	–	1.6 ± 0.01
353.15 K, x1 = 0.8001	772.9 ± 0.8	–	1.79 ± 0.02
353.15 K, x1 = 1	782.5 ± 0.8	–	2.01 ± 0.02
363.15 K, x1 = 0.2002	735.6 ± 0.8	–	1.14 ± 0.01
363.15 K, x1 = 0.4001	746.1 ± 0.8	–	1.24 ± 0.01
363.15 K, x1 = 0.5001	751.1 ± 0.8	–	1.31 ± 0.01
363.15 K, x1 = 0.6003	756.2 ± 0.8	–	1.38 ± 0.01
363.15 K, x1 = 0.8001	766.2 ± 0.8	–	1.54 ± 0.01
363.15 K, x1 = 1	775.9 ± 0.8	–	1.72 ± 0.02
373.15 K, x1 = 0.2002	728.7 ± 0.8	–	0.978 ± 0.012
373.15 K, x1 = 0.4001	739.3 ± 0.8	–	1.08 ± 0.01
373.15 K, x1 = 0.5001	744.3 ± 0.8	–	1.14 ± 0.01
373.15 K, x1 = 0.6003	749.4 ± 0.8	–	1.21 ± 0.01
373.15 K, x1 = 0.8001	759.5 ± 0.8	–	1.34 ± 0.01
373.15 K, x1 = 1	769.2 ± 0.8	–	1.48 ± 0.01

Reference: the NIST ThermoML archive (doi:10.1021/acs.jced.8b00692)
